# Experimental data published in US20120195488A1, “Methods and Compositions Related to Cellular Assays” (University of utah Research Foundation, priority 2009, published 2012).
# Assays:
# Format in all cases: cell-based
# γH2AX = test: Fraction of γH2AX positive cells in taxol treated MCF7 cells (multi-well immunofluorescence imaging)
# Source text: (§1) Many cells (typically >1,000) over a very large field of view were imaged. At least two stainings were used simultaneously. An optional third staining, here propidium iodide (PI), was also used as a nuclear locator.
# (§2) The cells were imaged in 3 channels which corresponded to the three stainings. The third channel was used for cell profiling. In a first data processing step, cells were automatically identified in the images by their signal and/or shape in one or both of the recorded channels. Alternatively, cells were identified using a nuclear counterstain and then the activator(s) were read. […] From the distributions S1(c) and S2(c), characteristic numbers were derived. For example (at the example of channel 1, same valid for channel 2).
# Fraction of positive cells: F1=N1+/N
# (§3) The imaging and analysis procedure were repeated for cells which were fixed at different time points t and under influence of different drug doses dd. For every condition (time point and drug dose), the parameters above were determined.
# (§4) Hela, MCF7, as well as primary cells from a patient were cultured for growth in this assay. Cells were obtained and seeded initially at ˜100 cells per well/96 well plate . The cells were grown in DMEM, with 10% Fetal Falf Serum, ultra pure, along with 5% Pen/Strep. The cells after being plated were placed in an incubator at […]. with 5% CO2 and grown for a period of 28 hours to allow for adhesion and division . If the cell took to the plate and were growing normally they were allowed to continue for an additional 24 hours. […] Here, the experiment first staining for only one marker using a green label so that the read was unpolluted by any other color that could show cross reactivity with the green (as there is RED, PI staining the nucleus already, which has no cross reactivity), once the data was collected and the data satisfied that the independent signal was reproducible, a double staining was performed by adding the second marker and using a orange dye with a wavelength of 555. […]
# MCF7 cells = test: Total number of cells N in taxol treated MCF7 cells; conditions: for killing of cells (total number of cells): all drug doses (10 nm to 5 um)
# Source text: as §1, §2, §3
# Hela, MCF7, as well as primary cells from a patient were cultured for growth in this assay. Cells were obtained and seeded initially at ˜100 cells per well/96 well plate . The cells were grown in DMEM, with 10% Fetal Falf Serum, ultra pure, along with 5% Pen/Strep. The cells after being plated were placed in an incubator at […]. with 5% CO2 and grown for a period of 28 hours to allow for adhesion and division . If the cell took to the plate and were growing normally they were allowed to continue for an additional 24 hours. Cells were then treated with either Taxol, Doxirubicin, or Ionizing Radiation or a combination of all 3. All drugs were added in the logarithmic titrations shown in the data at time point zero. The cells were then collected (fixed with −20 degree methanol for 7 minutes, washed with PBS, washed again and stored in PBS until the entire plate of titrations were finished. After collection, the nucleus of each cell was stained using PI (far RED) by adding PI for 15 minutes and then washing 3× the cells with sterile PBS . Once the nuclei had been stained, each well was stained for either phosphor ATM or gamma H2AX or both using primary antibodies at a dilution of 1:1000 in a PBS/Block mix for 1 hour at 37 degrees. The cell were then washed 3× with PBS and then treated with the appropriate secondary . Here, the experiment first staining for only one marker using a green label so that the read was unpolluted by any other color that could show cross reactivity with the green (as there is RED, PI staining the nucleus already, which has no cross reactivity), once the data was collected and the data satisfied that the independent signal was reproducible, a double staining was performed by adding the second marker and using a orange dye with a wavelength of 555. […]
# p-ATM = test: Average p-ATM signal per cell in taxol treated MCF7 cells
# Source text: as §1, §2
# Average signal of all cells: <S1>
# as §3
# as §4, with “hours. Cells were then treated with either Taxol, Doxirubicin, or Ionizing Radiation or a combination of all 3.” for “hours.”
smiles,measurement,setting,value
CC(=O)O[C@H]1C(=O)[C@@]2(C)[C@H]([C@H](OC(=O)c3ccccc3)[C@]3(O)C[C@H](OC(=O)[C@H](O)[C@@H](NC(=O)c4ccccc4)c4ccccc4)C(C)=C1C3(C)C)[C@]1(OC(C)=O)CO[C@@H]1C[C@@H]2O [Taxol],time point at which γH2AX fluorescence reaches its lowest point,γH2AX; 5 um dose,12 h
same,Emax,"γH2AX; Homo sapiens, all 4 doses 10 nm, 100 nm, 1 um and 5 um, 1 hour pulse, 4 hour post treatment time point, read-out: maximum response, induction rate of γH2AX (fraction of γH2AX positive cells)",~100%
same,effective on a population,γH2AX; highest dose,30%
same,killing of the entire cell population,MCF7 cells; 5 um dose,does not kill the entire population
same,time point at which cell killing was most effective,MCF7 cells; all drug doses,4 h
same,killing of cells (total number of cells),MCF7 cells,all treatments were effective in killing cells
same,killing of cells (total number of cells),MCF7 cells; listed as taxol,kill cells in a titration dependent fashion
same,time at which average p-ATM signal per cell is lowest,p-ATM; 5 uM,approximately 4 hours
same,"p-ATM fluorescent signal, initial elevation (maximum)",p-ATM; 5 um dose,~2300 a.u.
same,"p-ATM fluorescent signal, lowest point","p-ATM; 5 um dose, within 4 hours",~1000 a.u.
